Source: patent US20260308172A1, “TRICYCLIC COMPOUNDS FOR TREATMENT OF BACTERIAL INFECTIONS” (priority 2023, published 2026)
≈ marks a conversion by molar mass, not a printed value.

Tests used:
[1] = Human Microsome Stability Assay; assay type: in vitro ADME; settings: 1 μM compound, 0.5 mg/mL liver microsomal protein, 1 mM NADPH, pH 7.4, 37° C., 0-30 minutes; for CLint scaled at 1 µM: human, liver microsomes, read-out: Clearance of Human microsome
Method: The human microsomal stability assay is used for early assessment of metabolic stability of compounds of present invention in human liver microsomes. Human liver microsomes (Cat. NO.: 452117, Corning, USA) were pre-incubated with test compound for 10 minutes at 37° C. in 100 mM potassium phosphate buffer, pH 7.4. The reactions were initiated by adding NADPH regenerating system. The final incubation mixtures contained 1 μM compound, 0.5 mg/mL liver microsomal protein, 1 mM MgCl2 and 1 mM NADPH in 100 mM potassium phosphate buffer, pH 7.4. After incubation times of 0, 3, 6, 9, 15 and 30 minutes at 37° C., 300 μL of cold acetonitrile (including internal standard) was added to 100 μL incubation mixture to terminate the reaction. Following precipitation and centrifugation, the amount of compound remaining in the samples were determined by LC-MS/MS. Controls of no NADPH regenerating system at zero and 30 minutes were also prepared and analyzed.

[2] = system: Escherichia coli ATCC 25922; assay: Minimal Inhibitory Concentration (MIC) assay, Escherichia coli ATCC 25922; assay type: cell-based; settings: ATCC25922, 20 h, read-out: MIC Escherichia coli ATCC25922
Method: (§1) The antibacterial activity of the compounds of the present invention was evaluated against the commonly used quality control strain Escherichia coli ATCC 25922 and the rifampin-resistant mutant strain Klebsiella pneumonia ATCC 43816. Both were originally derived from human clinical samples and are available from ATCC (American Type Culture Collection). The in vitro potency of compounds to inhibit Escherichia coli (ATCC 25922) and Klebsiella pneumonia (ATCC 43816) growth was assessed by the MIC (Minimal Inhibitory Concentration) broth dilution method. Specifically compound dilutions were prepared from 10 mM DMSO stock solutions as follows: i) serial 2-fold dilution in 20 μL DMSO were prepared in a master plate (Greiner, Cat No: 651201), ii) 180 μL sterile distilled water was added to each aliquot and iii) 10 μL diluted compounds were transferred into a new assay plate (Costar, 3599).
(§2) Vials of each test microorganisms were maintained frozen in the vapor phase of a liquid nitrogen freezer. Single-use frozen vials of the two strains Escherichia coli ATCC 25922 (KWIKSTIK, 0335K) and Klebsiella pneumonia ATCC 43816, with predetermined CFU/mL, were taken out from the freezer, thawed at room temperature, and diluted in Cation-Adjusted Mueller Hinton Broth (CAMHB) to achieve a final inoculum of 5×10^5 CFU/mL. 90 μL bacteria containing broth was dispensed to the assay plate containing the pre-dispensed compound dilutions and mixed by pipetting 5 times.
(§3) Then the assay plates were incubated for 20 hours at 35° C. in ambient air. Following incubation, the MIC (μg/mL), the lowest concentration of drug that inhibits visible growth of the microorganism was read with the help of a magnification mirror and recorded.

[3] = system: Klebsiella pneumonia ATCC 43816; assay: Minimal Inhibitory Concentration (MIC) assay, Klebsiella pneumonia ATCC 43816; assay type: cell-based; settings: Klebsiella pneumoniae, ATCC43816, 20 h, read-out: MIC Klebsiella pneumoniae ATCC43816
Method: as §1, §2, §3

| Structure (SMILES) | CLint scaled at 1 µM [1] [L/h/kg] | MIC [2] [mg/L] | MIC [3] [mg/L] | Clearance of Human microsome [1] [L/h/kg] |
| --- | --- | --- | --- | --- |
| Cc1cc(C(F)(F)F)nc(N2CCN(S(=O)(=O)c3ccc4c(c3)OC[C@H]3[C@H](CN)OC(=O)N43)CC2)n1 (relative stereo) [Example 002] | 0.6 | 0.66 (≈ 1.25 µM) | 1.32 (≈ 2.5 µM) |  |
| Cc1cc(C(F)(F)F)nc(N2CCN(S(=O)(=O)c3ccc4c(c3)OC[C@H]3[C@@H](CN)OC(=O)N43)CC2)n1 (relative stereo) [Example 006] | 0.75 | 0.44 (≈ 0.833 µM) | 0.88 (≈ 1.67 µM) |  |
| NC[C@H]1OC(=O)N2c3ccc(S(=O)(=O)N4CCN(c5cc(C(F)(F)F)cc(Cl)n5)CC4)cc3OC[C@@H]12 (relative stereo) [Example 007] | 0.576 | 0.46 (≈ 0.84 µM) | 0.91 (≈ 1.66 µM) |  |
| NC[C@H]1OC(=O)N2c3ccc(S(=O)(=O)N4CCN(c5cc(C(F)(F)C6CCCNC6)cc(Cl)n5)CC4)cc3OC[C@H]12 (relative stereo) [Example 009] |  | 0.66 (≈ 1.08 µM) | 0.66 (≈ 1.08 µM) | 0.372 |
| O=C1O[C@H](CO)[C@@H]2COc3cc(S(=O)(=O)N4CCN(c5cc(C(F)(F)C6CCCNC6)cc(Cl)n5)CC4)ccc3N12 (relative stereo) [Example 033] | 0.816 | 1 (≈ 1.63 µM) | 1.55 (≈ 2.52 µM) |  |
| NCCCNC(=O)[C@H]1CC[C@H](C(F)(F)c2cc(Cl)nc(N3CCN(S(=O)(=O)c4ccc5c(c4)OC[C@@H]4[C@H](CN)OC(=O)N54)CC3)c2)CC1 (stereo in doubt) [Example 047, 4-[[2-[4-[[cis-3-(aminomethyl)-1-oxo-3a,4-dihydro-3H-oxazolo[4,3-c][1,4]benzoxazin-7-yl]sulfonyl]piperazin-1-yl]-6-chloro-4-pyridyl]-difluoro-methyl]-N-(3-aminopropyl)cyclohexanecarboxamide] | 0.42 | 0.58 (≈ 0.814 µM) | 0.59 (≈ 0.828 µM) |  |
| C[N+]1(CCN)CCC[C@H]1C(=O)N[C@H]1CC[C@H](C(F)(F)c2cc(Cl)nc(N3CCN(S(=O)(=O)c4ccc5c(c4)OC[C@@H]4[C@H](CO)OC(=O)N54)CC3)c2)CC1 (stereo in doubt) [Example 062, (2S)-1-(2-aminoethyl)-N-[4-[[2-chloro-6-[4-[[(3R,3aR)-3-(hydroxymethyl)-1-oxo-3a,4-dihydro-3H-oxazolo[4,3-c][1,4]benzoxazin-7-yl]sulfonyl]piperazin-1-yl]-4-pyridyl]-difluoro-methyl]cyclohexyl]-1-methyl-pyrrolidin-1-ium-2-carboxamide;chloride] |  | 0.67 | 0.67 | 0.372 |
| NC[C@@H]1OC(=O)N2c3ccc(S(=O)(=O)N4CCN(c5cc(C(F)(F)[C@H]6CNCCO6)cc(Cl)n5)CC4)cc3OC[C@@H]12 [Example 023, (3S,3aS)-3-(aminomethyl)-7-[4-[6-chloro-4-[difluoro-[(2R)-morpholin-2-yl]methyl]-2-pyridyl]piperazin-1-yl]sulfonyl-3a,4-dihydro-3H-oxazolo[4,3-c][1,4]benzoxazin-1-one] |  | 0.33 (≈ 0.537 µM) | 0.33 (≈ 0.537 µM) |  |
| NC[C@H]1OC(=O)N2c3ccc(S(=O)(=O)N4CCN(c5cc(C(F)(F)[C@H]6CNCCO6)cc(Cl)n5)CC4)cc3OC[C@H]12 [Example 024, (3R,3aR)-3-(aminomethyl)-7-[4-[6-chloro-4-[difluoro-[(2R)-morpholin-2-yl]methyl]-2-pyridyl]piperazin-1-yl]sulfonyl-3a,4-dihydro-3H-oxazolo[4,3-c][1,4]benzoxazin-1-one] |  | 0.66 (≈ 1.07 µM) | 1.32 (≈ 2.15 µM) |  |
| O=C1CCC2COc3cc(S(=O)(=O)N4CCN(c5cc(C(F)(F)[C@H]6CNCCO6)cc(Cl)n5)CC4)ccc3N12 (stereo partly drawn) [Example 030, 7-[4-[6-Chloro-4-[difluoro-[(2R)-morpholin-2-yl]methyl]-2-pyridyl]piperazin-1-yl]sulfonyl-2,3,3a,4-tetrahydropyrrolo[2,1-c][1,4]benzoxazin-1-one] |  | 0.49 (≈ 0.839 µM) | 0.492 (≈ 0.842 µM) |  |
| NC1CC(=O)N2c3ccc(S(=O)(=O)N4CCN(c5cc(C(F)(F)[C@H]6CNCCO6)cc(Cl)n5)CC4)cc3OCC12 (stereo partly drawn) [Example 031, 3-Amino-7-[4-[6-chloro-4-[difluoro-[(2R)-morpholin-2-yl]methyl]-2-pyridyl]piperazin-1-yl]sulfonyl-2,3,3a,4-tetrahydropyrrolo[2,1-c][1,4]benzoxazin-1-one] |  | 0.25 (≈ 0.417 µM) | 1.01 (≈ 1.68 µM) |  |
| O=C1O[C@@H](CO)[C@H]2COc3cc(S(=O)(=O)N4CCN(c5cc(C(F)(F)C67CNCC6C7)cc(Cl)n5)CC4)ccc3N12 (stereo partly drawn) [Example 036, (3R,3aR)-7-[4-[4-[3-azabicyclo[3.1.0]hexan-1-yl(difluoro)methyl]-6-chloro-2-pyridyl]piperazin-1-yl]sulfonyl-3-(hydroxymethyl)-3a,4-dihydro-3H-oxazolo[4,3-c][1,4]benzoxazin-1-one] |  | 0.14 (≈ 0.229 µM) | 0.14 (≈ 0.229 µM) |  |
| CC1COC(C(F)(F)c2cc(Cl)nc(N3CCN(S(=O)(=O)c4ccc5c(c4)OC[C@H]4[C@H](CO)OC(=O)N54)CC3)c2)CN1 (stereo partly drawn) [Example 040, (3R,3aS)-7-[4-[6-chloro-4-[difluoro-(5-methylmorpholin-2-yl)methyl]-2-pyridyl]piperazin-1-yl]sulfonyl-3-(hydroxymethyl)-3a,4-dihydro-3H-oxazolo[4,3-c][1,4]benzoxazin-1-one] |  | 0.29 (≈ 0.46 µM) | 0.29 (≈ 0.46 µM) |  |
| CC(N)C(=O)N1CC(C(F)(F)c2cc(Cl)nc(N3CCN(S(=O)(=O)c4ccc5c(c4)OC[C@@H]4[C@H](CO)OC(=O)N54)CC3)c2)C1 (stereo partly drawn) [Example 041, (3R,3aR)-7-[4-[4-[[1-(2-aminopropanoyl)azetidin-3-yl]-difluoro-methyl]-6-chloro-2-pyridyl]piperazin-1-yl]sulfonyl-3-(hydroxymethyl)-3a,4-dihydro-3H-oxazolo[4,3-c][1,4]benzoxazin-1-one] |  | 2.4 (≈ 3.65 µM) | 2.4 (≈ 3.65 µM) |  |
| NC(=O)CN1CCC(C(F)(F)c2cc(Cl)nc(N3CCN(S(=O)(=O)c4ccc5c(c4)OC[C@@H]4[C@H](CO)OC(=O)N54)CC3)c2)CC1 [Example 056, 2-[4-[[2-[4-[[(3R,3aR)-3-(hydroxymethyl)-1-oxo-3a,4-dihydro-3H-oxazolo[4,3-c][1,4]benzoxazin-7-yl]sulfonyl]piperazin-1-yl]-6-chloro-4-pyridyl]-difluoro-methyl]-1-piperidyl]acetamide] |  | 0.31 (≈ 0.462 µM) | 0.23 (≈ 0.343 µM) |  |
| C[N@@+]1(CC(N)=O)CCC[C@H]1C(=O)N[C@H]1CC[C@H](C(F)(F)c2cc(Cl)nc(N3CCN(S(=O)(=O)c4ccc5c(c4)OC[C@@H]4[C@H](CO)OC(=O)N54)CC3)c2)CC1 [Example 058, (1S,2S)—N-[4-[[2-[4-[[(3R,3aR)-3-(hydroxymethyl)-1-oxo-3a,4-dihydro-3H-oxazolo[4,3-c][1,4]benzoxazin-7-yl]sulfonyl]piperazin-1-yl]-6-chloro-4-pyridyl]-difluoro-methyl]cyclohexyl]-1-(2-amino-2-oxo-ethyl)-1-methyl-pyrrolidin-1-ium-2-carboxamide;chloride] |  | 1.3 | 1.32 |  |
| C[N@+]1(CC(N)=O)CCC[C@H]1C(=O)N[C@H]1CC[C@H](C(F)(F)c2cc(Cl)nc(N3CCN(S(=O)(=O)c4ccc5c(c4)OC[C@@H]4[C@H](CO)OC(=O)N54)CC3)c2)CC1 [Example 059, (1R,2S)—N-[4-[[2-[4-[[(3R,3aR)-3-(hydroxymethyl)-1-oxo-3a,4-dihydro-3H-oxazolo[4,3-c][1,4]benzoxazin-7-yl]sulfonyl]piperazin-1-yl]-6-chloro-4-pyridyl]-difluoro-methyl]cyclohexyl]-1-(2-amino-2-oxo-ethyl)-1-methyl-pyrrolidin-1-ium-2-carboxamide;chloride] |  | 0.66 | 0.66 |  |
| NCC[N+]1(CCNC(=O)[C@H]2CC[C@H](C(F)(F)c3cc(Cl)nc(N4CCN(S(=O)(=O)c5ccc6c(c5)OC[C@H]5[C@H](CO)OC(=O)N65)CC4)c3)CC2)CCCC1.[Cl-] [Example 064, 4-[[2-[4-[[(3R,3aS)-3-(hydroxymethyl)-1-oxo-3a,4-dihydro-3H-oxazolo[4,3-c][1,4]benzoxazin-7-yl]sulfonyl]piperazin-1-yl]-6-chloro-4-pyridyl]-difluoro-methyl]-N-[2-[1-(2-aminoethyl)pyrrolidin-1-ium-1-yl]ethyl]cyclohexanecarboxamide; chloride] |  | 2.8 | 2.85 |  |
